Data: publication PMC9143228, “Evaluation of 3-Borono-L-Phenylalanine as a Water-Soluble Boron Neutron Capture Therapy Agent” (Pharmaceutics, 2022)
≈ marks a conversion by molar mass, not a printed value.

Legend:
[1] = Water solubility (boron in supernatant by ICP-MS); format: physicochemical; details: for solubility at 24 h: 25 °C, 24 h stirring, n = 6
Method: 3-BPA or 4-BPA (40 mg) were suspended in 200 μL water and stirred at 25 °C for 24 h. After stirring, the solution was centrifuged at 5000 rpm for 10 min, and the amount of boron in the supernatant solution was measured by 8800 triple quadrupole ICP-MS (Agilent, Santa Clara, CA, USA). The experiment was repeated twice with n = 3.

[2] = Log p measurement (water/1-octanol, ICP-MS); format: physicochemical; details: v/v); water:1-octanol 1:1, n = 12
Method: After dissolving 3-BPA or 4-BPA in water (0.2 mg/mL), 1-octanol was added to compose a water:1-octanol (1:1, v/v) mixture. The mixture was shaken for 5 min and then centrifuged at 5000 rpm for 10 min. The amount of boron was measured for each liquid phase using ICP-MS, and log p was calculated from the concentration ratio of each liquid phase. The experiment was repeated twice with n = 6.

[3] = tested on: T3M-4 human pancreatic adenocarcinoma cells; assay: Cellular uptake study, T3M-4; format: cell-based; details: for Boron uptake, specific (LAT1-specific): difference non-inhibitor minus inhibitor; for Boron uptake, non-inhibitor: no inhibitor, mixed with fructose; for Boron uptake, inhibitor: with 10 µM LAT1 inhibitor JPH203
Method: (§1) B16F10 mouse melanoma cells (RCB2630) and T3M-4 human pancreatic adenocarcinoma cells (RCB1021) were provided by the RIKEN BRC (Ibaraki, Japan). U-87MG human glioblastoma cells were provided by Prof. Magata (Hamamatsu University School of Medicine, Hamamatsu, Japan), and A549 human lung carcinoma cells (CCL-185) were obtained from ATCC (Manassas, VA, USA). Cells were cultured in growth medium RPMI 1640 for B16F10 and T3M-4 and DMEM for A549 and U-87MG, containing 10% fetal bovine serum at 37 °C in a humidified atmosphere of 5% CO2.
(§2) Cells were cultured in six-well plates 2 days before the experiment. After medium removal, cells were washed twice with choline buffer (140 mM choline chloride, 2 mM potassium chloride, 1 mM magnesium chloride, 1 mM calcium chloride, 1 M Tris) and preincubated with 900 µL of choline buffer containing/not containing 10 µM of the LAT1-specific inhibitor JPH203 [32, 33] (Selleck Biotech, Tokyo, Japan) at 37 °C for 5 min. After incubation, 100 µL of 3-BPA or 4-BPA mixed with fructose (0.5 mg/mL, 0.11 w/v% Fru, pH 7.4) was added and incubated at 37 °C for 1, 5, and 30 min. After washing three times with choline buffer, 400 µL of 0.2 M NaOH was added to lyse the cells. After the amount of cell protein was measured using the BCA method (Thermo Fisher Scientific, Tokyo, Japan) and the mixture was ashed with nitric acid, the amount of boron was measured using ICP-MS. The accumulation rate was calculated as % dose/mg protein from the quantified dose of boron in added 3-BPA and 4-BPA, respectively (n = 3).

[4] = tested on: A549 human lung carcinoma cells; assay: Cellular uptake study, A549; format: cell-based; details: for Boron uptake, specific (LAT1-specific): difference non-inhibitor minus inhibitor; for Boron uptake, non-inhibitor: no inhibitor, mixed with fructose; for Boron uptake, inhibitor: with 10 µM LAT1 inhibitor JPH203
Method: as §1, §2

[5] = tested on: B16F10 mouse melanoma cells; assay: Cellular uptake study, B16F10; format: cell-based; details: for Boron uptake, specific (LAT1-specific): difference non-inhibitor minus inhibitor; for Boron uptake, non-inhibitor: no inhibitor, mixed with fructose; for Boron uptake, inhibitor: with 10 µM LAT1 inhibitor JPH203
Method: as §1, §2

[6] = tested on: U-87MG human glioblastoma cells; assay: Cellular uptake study, U-87MG; format: cell-based; details: for Boron uptake, specific (LAT1-specific): difference non-inhibitor minus inhibitor; for Boron uptake, non-inhibitor: no inhibitor, mixed with fructose; for Boron uptake, inhibitor: with 10 µM LAT1 inhibitor JPH203
Method: as §1, §2

[7] = set-up: method as in doi:10.1007/978-1-4757-9567-7_10; details: cited from earlier work
[8] = cited from earlier work

## NC(Cc1cccc(O)c1)C(=O)O (racemic) [meta-Tyrosine, DL-meta-tyrosine]
[1]; in water, 25°C, n = 3, Table S8
  Solubility (g/L) (in water, 25°C, n = 3): 9.8 ± 0.1 g/L (≈ 54.1 mM)
[1]; times higher than DL-tyrosine
  Water solubility of DL-meta-tyrosine relative to DL-tyrosine: more than 25 times

## N[C@@H](Cc1cccc(B(O)O)c1)C(=O)O [3-BPA, 3-borono-L-phenylalanine]
[1]; in water
  solubility at 24 h: 125 mg/mL (≈ 598 mM)
[1]; times higher than 4-BPA
  Water solubility of 3-BPA relative to 4-BPA: more than 100 times
[2]
  logP: -1.59
[3]; T3M-4, 1 min
  Boron uptake, specific (LAT1-specific): 0.69 ± 0.09 % dose/mg protein
  Boron uptake, non-inhibitor: 0.78 ± 0.09 % dose/mg protein
  Boron uptake, inhibitor: 0.09 ± 0.08 % dose/mg protein
[3]; T3M-4, 5 min
  Boron uptake, specific (LAT1-specific): 3.55 ± 0.40 % dose/mg protein
  Boron uptake, non-inhibitor: 3.55 ± 0.40 % dose/mg protein
  Boron uptake, inhibitor: 0.09 ± 0.07 % dose/mg protein
[3]; T3M-4, 30 min
  Boron uptake, specific (LAT1-specific): 5.41 ± 0.63 % dose/mg protein
  Boron uptake, non-inhibitor: 5.62 ± 0.63 % dose/mg protein
  Boron uptake, inhibitor: 0.21 ± 0.06 % dose/mg protein
[4]; A549, 1 min
  Boron uptake, specific (LAT1-specific): 0.30 ± 0.12 % dose/mg protein
  Boron uptake, non-inhibitor: 0.48 ± 0.12 % dose/mg protein
  Boron uptake, inhibitor: 0.18 ± 0.03 % dose/mg protein
[4]; A549, 5 min
  Boron uptake, specific (LAT1-specific): 0.94 ± 0.40 % dose/mg protein
  Boron uptake, non-inhibitor: 1.22 ± 0.13 % dose/mg protein
  Boron uptake, inhibitor: 0.29 ± 0.02 % dose/mg protein
[4]; A549, 30 min
  Boron uptake, specific (LAT1-specific): 3.60 ± 0.24 % dose/mg protein
  Boron uptake, non-inhibitor: 4.02 ± 0.24 % dose/mg protein
  Boron uptake, inhibitor: 0.42 ± 0.01 % dose/mg protein
[5]; B16F10, 1 min
  Boron uptake, specific (LAT1-specific): 0.03 ± 0.03 % dose/mg protein
  Boron uptake, non-inhibitor: 0.23 ± 0.03 % dose/mg protein
  Boron uptake, inhibitor: 0.21 ± 0.06 % dose/mg protein
[5]; B16F10, 5 min
  Boron uptake, specific (LAT1-specific): 0.42 ± 0.11 % dose/mg protein
  Boron uptake, non-inhibitor: 0.59 ± 0.11 % dose/mg protein
  Boron uptake, inhibitor: 0.17 ± 0.11 % dose/mg protein
[5]; B16F10, 30 min
  Boron uptake, specific (LAT1-specific): 0.56 ± 0.07 % dose/mg protein
  Boron uptake, non-inhibitor: 0.80 ± 0.07 % dose/mg protein
  Boron uptake, inhibitor: 0.24 ± 0.01 % dose/mg protein
[6]; 1 min
  Boron uptake, specific (LAT1-specific): 0.02 ± 0.04 % dose/mg protein
  Boron uptake, non-inhibitor: 0.33 ± 0.04 % dose/mg protein
  Boron uptake, inhibitor: 0.31 ± 0.05 % dose/mg protein
[6]; 5 min
  Boron uptake, specific (LAT1-specific): 0.15 ± 0.04 % dose/mg protein
  Boron uptake, non-inhibitor: 0.28 ± 0.04 % dose/mg protein
  Boron uptake, inhibitor: 0.14 ± 0.05 % dose/mg protein
[6]; 30 min
  Boron uptake, specific (LAT1-specific): 0.21 ± 0.05 % dose/mg protein
  Boron uptake, non-inhibitor: 0.45 ± 0.05 % dose/mg protein
  Boron uptake, inhibitor: 0.24 ± 0.04 % dose/mg protein
[7]
  pKa1: 2.26
  pKa2: 8.46
  pKa3: 9.95

## N[C@@H](Cc1ccc(B(O)O)cc1)C(=O)O [4-BPA, 4-borono-L-phenylalanine]
[1]; in water
  solubility at 24 h: 0.72 ± 0.13 mg/mL (≈ 3.44 mM)
[2]
  logP: -1.8 ± 0.04
[3]; T3M-4, 1 min
  Boron uptake, specific (LAT1-specific): 0.56 ± 0.11 % dose/mg protein
  Boron uptake, non-inhibitor: 0.82 ± 0.11 % dose/mg protein
  Boron uptake, inhibitor: 0.26 ± 0.16 % dose/mg protein
[3]; T3M-4, 5 min
  Boron uptake, specific (LAT1-specific): 3.10 ± 0.39 % dose/mg protein
  Boron uptake, non-inhibitor: 3.28 ± 0.39 % dose/mg protein
  Boron uptake, inhibitor: 0.18 ± 0.02 % dose/mg protein
[3]; T3M-4, 30 min
  Boron uptake, specific (LAT1-specific): 5.19 ± 0.45 % dose/mg protein
  Boron uptake, non-inhibitor: 5.40 ± 0.45 % dose/mg protein
  Boron uptake, inhibitor: 0.20 ± 0.01 % dose/mg protein
[4]; A549, 1 min
  Boron uptake, specific (LAT1-specific): 0.13 ± 0.04 % dose/mg protein
  Boron uptake, non-inhibitor: 0.14 ± 0.04 % dose/mg protein
  Boron uptake, inhibitor: 0.01 ± 0.01 % dose/mg protein
[4]; A549, 5 min
  Boron uptake, specific (LAT1-specific): 0.66 ± 0.08 % dose/mg protein
  Boron uptake, non-inhibitor: 0.66 ± 0.08 % dose/mg protein
  Boron uptake, inhibitor: 0.00 ± 0.01 % dose/mg protein
[4]; A549, 30 min
  Boron uptake, specific (LAT1-specific): 3.75 ± 0.20 % dose/mg protein
  Boron uptake, non-inhibitor: 3.92 ± 0.20 % dose/mg protein
  Boron uptake, inhibitor: 0.17 ± 0.09 % dose/mg protein
[5]; B16F10, 1 min
  Boron uptake, specific (LAT1-specific): 0.03 ± 0.01 % dose/mg protein
  Boron uptake, non-inhibitor: 0.03 ± 0.01 % dose/mg protein
  Boron uptake, inhibitor: 0.00 ± 0.01 % dose/mg protein
[5]; B16F10, 5 min
  Boron uptake, specific (LAT1-specific): 0.48 ± 0.01 % dose/mg protein
  Boron uptake, non-inhibitor: 0.62 ± 0.01 % dose/mg protein
  Boron uptake, inhibitor: 0.14 ± 0.03 % dose/mg protein
[5]; B16F10, 30 min
  Boron uptake, specific (LAT1-specific): 0.56 ± 0.06 % dose/mg protein
  Boron uptake, non-inhibitor: 0.57 ± 0.06 % dose/mg protein
  Boron uptake, inhibitor: 0.01 ± 0.01 % dose/mg protein
[6]; 1 min
  Boron uptake, specific (LAT1-specific): 0.05 ± 0.02 % dose/mg protein
  Boron uptake, non-inhibitor: 0.13 ± 0.02 % dose/mg protein
  Boron uptake, inhibitor: 0.08 ± 0.01 % dose/mg protein
[6]; 5 min
  Boron uptake, specific (LAT1-specific): 0.06 ± 0.02 % dose/mg protein
  Boron uptake, non-inhibitor: 0.20 ± 0.02 % dose/mg protein
  Boron uptake, inhibitor: 0.14 ± 0.02 % dose/mg protein
[6]; 30 min
  Boron uptake, specific (LAT1-specific): 0.31 ± 0.03 % dose/mg protein
  Boron uptake, non-inhibitor: 0.48 ± 0.03 % dose/mg protein
  Boron uptake, inhibitor: 0.17 ± 0.01 % dose/mg protein
[7]
  pKa1: 2.35
  pKa2: 8.45
  pKa3: 9.67
[8]; neutral conditions, ref Borofalan interview form
  Water solubility under neutral conditions: 0.6 to 0.7 g/L

## N[C@@H](Cc1ccccc1)C(=O)O [phenylalanine]
[1]; in water, 25°C, n = 3, Table S8, read-out: Solubility (g/L) (in water, 25°C, n = 3)
  solubility: 15.3 ± 0.1 g/L (≈ 92.6 mM)
[8]
  water solubility: 12.0 g/L (≈ 72.6 mM)
